Here are results for five molecules from patent US11202757B2, “Dry powder compositions for intranasal delivery” (Formulex Pharma Innovations Ltd., priority 2017, dated 2021).

Where a name gives a salt, the structure may show the parent alone.

This data set in a line: Particle size analysis (Malvern laser diffraction). As to conditions: for size range of the active agent particle population: laser diffraction, active agent population of the composition. It counts as physicochemical. The procedure:
(§1) The spray-drying process was carried out using the Mini Spray Dryer B-290 of Büchi Labortechnik AG. A magnetic stirrer (Fried Electric) was placed under the receiver (receiving chamber), a magnetic bar of appropriate size was inserted into the receiver, and then the diluent was added. […] Quantification was performed using HPLC and a Dionex HPLC instrument. A FEI Quanta-200 Scanning Electron Microscope (SEM) equipped with an Everhart-Thornley Detector was used to obtain the images of the spray-dried powder. The accelerating voltage of 20 kV was applied to provide magnification from 250 to 10,000 times. In addition, an X-ray Element Analysis Detector (Link ISIS, Oxford Instruments, GB) was used to determine the drug and particle identity and their distribution throughout DPI. Particle size was measured using the Malvern Mastersizer 3000 series based on the Light Diffraction method.
as §1, with “England)” for “GB)”

[1] abbreviates: estimated in the range of 0-40 μm.

For `C=CCN1CC[C@]23c4c5ccc(O)c4O[C@H]2C(=O)CC[C@@]3(O)[C@H]1C5` [naloxone hydrochloride], the “size range of the active agent particle population” value (shortened to “size range”) is reported as 5-30 μm.
In the case of `COc1ccc2c3c1O[C@H]1C(=O)CC[C@@]4(O)[C@@H](C2)N(C)CC[C@]314.Cl` [oxycodone hydrochloride], the “size range” value is recorded as 3-30 μm.
Still for that read-out and setting: the value for `CC(=O)Nc1ccc(O)cc1` [paracetamol] was 2-30 μm.
Regarding `CNS(=O)(=O)Cc1ccc2[nH]cc(CCN(C)C)c2c1` [sumatriptan succinate], the “size range” value is on record as 5-25 μm. Further, under setting [1], the “D(10) of sumatriptan succinate alone” value was 5.2 μm, the “D(50) of sumatriptan succinate alone” value is 11.2 μm, the “D(90) of sumatriptan succinate alone” value was 20.1 μm and the “D(99) of sumatriptan succinate alone” value is 27.1 μm.
Regarding “insulin-sodium chloride: small spherical particles of insulin-sodium chloride in the insulin composition”, the “size range” value is given as 5-35 μm.
